We go through 1 compound from publication PMC10848157, “Assessing NH300094, a novel dopamine and serotonin receptor modulator with cognitive enhancement property for treating schizophrenia” (Frontiers in Pharmacology, 2024).

For one data set, the system named is male ICR mice. Kind of data set: Forced swimming test in mice. It counts as in vivo. The note with it: single oral dose; NH300094 0.03 mg/kg; risperidone 0.01, 0.03 and 0.1 mg/kg. The method, then:
Each mouse was required to swim in an open cylindrical container (height of 25 cm, diameter of 10 cm) after intragastric administration of compounds 1 h. The container contained 1.2 L of water with temperature maintained at 24°C ± 1°C. The test used a computerized analysis and tracking system (Clever Sys Inc., Leesburg, VA) to recorded the duration of immobility (last 4 min of a total time of 6 min) about the testing mice.

The target in another data set is 5-HT2A receptor (Homo sapiens, UniProt P28223). Kind of data set: 5-HT2A receptor functional assay (calcium flow, FLIPR, antagonist). It counts as cell-based.
In the next data set the target is D2L receptor (Homo sapiens, UniProt P14416). Kind of data set: D2L receptor functional assay (cAMP assay, antagonist). It counts as cell-based. The note with it: antagonist activity, CHO-K1/D2 cells, read-out: D2LR, IC50.
A further data set has as its target T1, H1 receptor (Homo sapiens, UniProt P35367).
T1 construct: host or cells: HEK293/H1
Description: H1 receptor functional assay (calcium flow, FLIPR). It counts as cell-based. The note with it: HEK293/H1 cells, read-out: H1R, IC50.

Data set [1] in a line: Pharmacokinetics assay in rats. It counts as in vivo, male SD rats. The method, then: Six male SD rats (7 weeks of age) were randomly divided into two groups with three rats per group. Animals were fasted overnight and had free access to water before dosing. For the intravenous group, male SD rats were administered NH300094 by single intravenous bolus administration at a dose of 2 mg/kg. For the oral group, male SD rats were dosed orally with NH300094 at a dose of 10 mg/kg. Serial blood samples were collected at different time points (Pre-dose, 0.033, 0.083, 0.25, 0.5, 1, 2, 4, 6, 8, 12 and 24 h for the intravenous group; Pre-dose, 0.167, 0.333, 0.5, 1, 2, 4, 6, 8, 10, 12 and 24 h for the oral group) via jugular vein puncture from each study animal. All blood samples were transferred into commercial tube containing K2-EDTA. Plasma samples were prepared by centrifuging the blood samples at approximately 4°C, 3,200×g for 15 min, and then stored at −70°C until analysis (Supplementary Materials). The pharmacokinetic parameters were calculated using WinNonlin software (Version 6.3) according to non-compartmental model.

Another data set has as its target T2, 5-HT1A receptor (Homo sapiens, UniProt P08908).
T2 sequence (P08908 1-422): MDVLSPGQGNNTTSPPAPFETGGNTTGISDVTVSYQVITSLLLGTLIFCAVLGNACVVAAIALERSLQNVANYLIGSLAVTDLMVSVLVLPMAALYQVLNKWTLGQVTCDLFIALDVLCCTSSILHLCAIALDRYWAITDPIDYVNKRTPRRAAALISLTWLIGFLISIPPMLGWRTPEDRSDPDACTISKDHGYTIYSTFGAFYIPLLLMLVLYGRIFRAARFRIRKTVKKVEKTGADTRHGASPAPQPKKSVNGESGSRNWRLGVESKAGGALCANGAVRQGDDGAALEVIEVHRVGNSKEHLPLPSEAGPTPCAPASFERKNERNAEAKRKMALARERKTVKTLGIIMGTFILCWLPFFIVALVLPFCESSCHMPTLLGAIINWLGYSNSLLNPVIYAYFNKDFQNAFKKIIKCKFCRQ
Description: 5-HT1A receptor functional assay (cAMP assay, antagonist). The class given is cell-based. Conditions: antagonist activity, CHO-K1/5-HT1A cells, read-out: 5HT1AR, IC50. For orientation: Cyclic AMP is a second messenger, typically raised through Gs and lowered through Gi signalling.

Another data set deals with T3, Alpha2A receptor (Homo sapiens, UniProt P08913).
T3 construct: expressed in transfected cells; host or cells: HEK293/Alpha2A (constructed by Shanghai shujing Biopharma)
T3 sequence (P08913 1-465): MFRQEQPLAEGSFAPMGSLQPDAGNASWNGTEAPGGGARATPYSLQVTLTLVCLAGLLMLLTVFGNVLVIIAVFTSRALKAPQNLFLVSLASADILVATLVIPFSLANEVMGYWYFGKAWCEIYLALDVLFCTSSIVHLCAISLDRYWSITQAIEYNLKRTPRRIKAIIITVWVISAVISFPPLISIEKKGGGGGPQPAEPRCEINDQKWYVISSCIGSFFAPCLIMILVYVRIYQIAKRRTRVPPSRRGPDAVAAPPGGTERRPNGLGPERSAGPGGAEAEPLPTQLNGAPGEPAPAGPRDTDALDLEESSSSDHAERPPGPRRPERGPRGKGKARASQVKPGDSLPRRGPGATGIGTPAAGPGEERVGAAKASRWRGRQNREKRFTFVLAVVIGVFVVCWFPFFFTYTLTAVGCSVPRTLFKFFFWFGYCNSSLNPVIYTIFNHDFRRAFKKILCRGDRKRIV
Description: Alpha2A receptor functional assay (cAMP assay). It counts as cell-based. Conditions: HEK293/Alpha2A cells, read-out: Alpha2AR, IC50.

In a further data set the target is T4, M1 receptor (Homo sapiens, UniProt P11229).
T4 sequence (P11229 1-460): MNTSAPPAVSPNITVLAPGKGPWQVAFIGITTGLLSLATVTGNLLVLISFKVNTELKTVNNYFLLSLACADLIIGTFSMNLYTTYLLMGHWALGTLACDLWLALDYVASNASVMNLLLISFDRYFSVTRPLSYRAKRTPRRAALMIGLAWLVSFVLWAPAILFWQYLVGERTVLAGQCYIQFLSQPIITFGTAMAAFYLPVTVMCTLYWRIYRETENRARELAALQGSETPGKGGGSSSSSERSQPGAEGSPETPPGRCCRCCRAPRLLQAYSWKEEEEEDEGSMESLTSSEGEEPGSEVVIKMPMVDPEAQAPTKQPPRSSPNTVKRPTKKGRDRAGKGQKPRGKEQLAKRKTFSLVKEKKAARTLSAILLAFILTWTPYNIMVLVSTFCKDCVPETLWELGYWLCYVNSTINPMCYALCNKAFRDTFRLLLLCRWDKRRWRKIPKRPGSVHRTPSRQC
Description: M1 receptor functional assay (calcium flow, FLIPR). The note with it: CHO-K1/M1 cells, read-out: M1R, IC50. The class given is cell-based.

The next data set deals with D3 receptor (Homo sapiens, UniProt P35462). Description: D3 receptor functional assay (Nano-Glo luciferase assay system). The class given is cell-based. Conditions: antagonist activity, CHO-K1/D3 cells, read-out: D3R, IC50.
The mark [2] stands for this setting: rat, plasma, intravenous, 2 mg/kg, male SD rats.
[3] abbreviates: rat, plasma, oral, 10 mg/kg, male SD rats.

Sequence of 5-HT2A receptor (P28223 whole entry): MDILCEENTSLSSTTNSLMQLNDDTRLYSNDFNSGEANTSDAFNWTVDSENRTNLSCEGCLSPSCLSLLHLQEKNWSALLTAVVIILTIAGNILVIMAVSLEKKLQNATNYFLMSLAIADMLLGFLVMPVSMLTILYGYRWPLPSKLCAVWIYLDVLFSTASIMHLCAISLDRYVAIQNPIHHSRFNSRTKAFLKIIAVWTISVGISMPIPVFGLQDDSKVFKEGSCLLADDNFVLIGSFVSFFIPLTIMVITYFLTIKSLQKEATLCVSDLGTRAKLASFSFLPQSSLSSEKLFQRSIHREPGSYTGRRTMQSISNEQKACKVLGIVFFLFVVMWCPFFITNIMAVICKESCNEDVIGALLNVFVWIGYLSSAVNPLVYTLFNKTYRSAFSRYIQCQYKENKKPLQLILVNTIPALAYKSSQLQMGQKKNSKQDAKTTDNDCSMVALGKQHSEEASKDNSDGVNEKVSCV
Sequence of D3 receptor (P35462 whole entry): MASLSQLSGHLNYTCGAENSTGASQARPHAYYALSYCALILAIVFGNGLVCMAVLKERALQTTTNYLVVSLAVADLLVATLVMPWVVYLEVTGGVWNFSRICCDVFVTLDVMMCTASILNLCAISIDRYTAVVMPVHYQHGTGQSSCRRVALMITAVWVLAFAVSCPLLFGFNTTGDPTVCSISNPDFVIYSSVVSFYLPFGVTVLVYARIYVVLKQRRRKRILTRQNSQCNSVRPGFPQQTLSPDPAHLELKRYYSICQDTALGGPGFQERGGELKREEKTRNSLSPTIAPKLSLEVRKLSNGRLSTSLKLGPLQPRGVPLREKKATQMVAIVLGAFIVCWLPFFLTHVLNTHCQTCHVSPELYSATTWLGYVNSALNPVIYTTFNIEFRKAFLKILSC
Sequence of D2L receptor (P14416 whole entry): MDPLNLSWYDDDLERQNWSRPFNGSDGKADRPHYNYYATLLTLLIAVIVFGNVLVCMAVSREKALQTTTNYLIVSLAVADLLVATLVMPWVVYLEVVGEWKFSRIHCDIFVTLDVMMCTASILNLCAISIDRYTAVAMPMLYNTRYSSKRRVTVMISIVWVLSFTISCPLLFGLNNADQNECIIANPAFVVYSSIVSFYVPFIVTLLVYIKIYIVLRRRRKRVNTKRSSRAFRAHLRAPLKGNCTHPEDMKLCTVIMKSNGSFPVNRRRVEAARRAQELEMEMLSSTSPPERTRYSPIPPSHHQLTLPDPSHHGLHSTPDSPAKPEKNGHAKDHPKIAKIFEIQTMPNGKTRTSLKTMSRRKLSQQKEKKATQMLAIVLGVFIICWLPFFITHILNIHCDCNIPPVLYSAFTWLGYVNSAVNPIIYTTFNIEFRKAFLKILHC
T1 sequence (P35367 whole entry): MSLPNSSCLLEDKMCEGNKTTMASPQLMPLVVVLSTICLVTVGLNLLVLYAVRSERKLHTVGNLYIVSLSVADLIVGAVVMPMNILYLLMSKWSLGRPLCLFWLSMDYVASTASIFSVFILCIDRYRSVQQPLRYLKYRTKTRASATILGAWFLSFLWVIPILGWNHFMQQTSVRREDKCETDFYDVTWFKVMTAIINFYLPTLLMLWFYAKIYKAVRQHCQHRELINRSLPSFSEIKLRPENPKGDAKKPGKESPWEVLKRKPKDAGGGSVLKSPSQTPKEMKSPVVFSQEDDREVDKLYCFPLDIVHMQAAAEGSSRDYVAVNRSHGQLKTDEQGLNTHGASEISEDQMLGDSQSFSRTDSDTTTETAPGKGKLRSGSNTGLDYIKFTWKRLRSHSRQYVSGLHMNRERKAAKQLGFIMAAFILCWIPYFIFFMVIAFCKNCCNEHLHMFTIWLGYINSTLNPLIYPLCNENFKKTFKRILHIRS

Take `O=C1CCc2cc(OCCCN3CCC(c4noc5cc(F)ccc45)CC3)cc3c2N1CC3` [NH300094, 8-(3-(4-(6-fluorobenzo [d]isoxazol-3-yl)piperidin-1-yl)propoxy)-1,2,5,6-tetrahydro-4H-pyrrolo [3,2,1-ij] quinolin-4-one]: the “effect on immobility time in the FST” value in the data set with male ICR mice was “decreased immobility time”. The “antagonistic activities ratio of 5-HT2AR and D2R (IC50 ratio)” value at 5-HT2A receptor (IC50 5-HT2AR / IC50 D2R) is 0.45. The 50% inhibitory concentration (IC50) on 5-HT2A receptor (antagonist activity, calcium flow FLIPR, CHO-K1/5-HT2A cells, read-out: 5HT2AR, IC50) was 0.47 ± 0.79 nM; on D2L receptor, 1.04 ± 0.59 nM; on H1 receptor it was 126 nM; at 5-HT1A receptor, 85.6 ± 61.5 nM; at Alpha2A receptor, 314 nM; on M1 receptor it was 3520 nM. Moreover, at D3 receptor, the half-maximal inhibitory concentration (IC50) was determined as 31.5 ± 23.1 nM. This compound also displayed a bioavailability in data set [1] (male, SD, rat, plasma, oral, 10 mg/kg, oral 10 mg/kg vs intravenous 2 mg/kg, male SD rats) of approximately 87.6%. For the same compound, the “area under the concentration time-curves for time zero to infinity” value in data set [1] (oral administration, rats (rounded value in text)) is 14800 ng/mL*h. For the same compound, the values for the area under the curve AUC(0-inf) in data set [1] (setting [2]) and in [1] (setting [3]) were 3380 ng·h/mL and 14800 ng·h/mL, respectively. The area under the curve AUC(0-t) in [1] (setting [2]) came to 3370 ng·h/mL; in data set [1] (setting [3]), 14800 ng·h/mL. Moreover, in data set [1] (setting [2]), the C0 amounted to 10800 ng/mL. In [1] (setting [2]), this compound displayed a clearance of 9.91 mL/min/kg. Also, the half-life in data set [1] (setting [2]) was 1.73 h; in data set [1] (setting [3]), 1.28 h. Also, the Vd in data set [1] (rat, plasma, intravenous, 2 mg/kg, male SD rats, read-out: Vdss) was determined as 0.379 L/kg. Further, in data set [1] (setting [3]), the peak level (Cmax) was 8710 ng/mL. The Tmax in data set [1] (setting [3]) is 0.389 h.

Broadly, the IC50 is the midpoint of a concentration-inhibition curve. Broadly, the bioavailability is the share of a dose that reaches the circulation, judged against a reference dose that is usually intravenous. A low value points to poor availability. What is called AUC(0-inf) is total exposure, with the tail of the curve extrapolated. Low values mean low exposure, high ones high exposure. For orientation: AUC(0-t) means exposure summed from dosing to a finite time, without extrapolation to infinity. A lower AUC(0-t) goes with less exposure. Broadly, the clearance is the volume of plasma or blood freed of the substance per unit of time. In general, half-life refers to the time needed for the level to fall by half in the phase considered. The low end stands for fast loss, the high end for slow loss. The Cmax is the maximum level reached in the sampled fluid or tissue. One may read the Tmax as the time at which the peak concentration occurs.
